Measured values as given in ChEMBL document CHEMBL1122804, “Synthesis of imidazo[1,2-a]pyrazine derivatives with uterine-relaxing, antibronchospastic, and cardiac-stimulating properties” (1984).

Organism: Cavia porcellus
Experiment: Inhibition of the bronchospasm induced by histamine in guinea pig at the high concentration/dose.
Format: functional
Details: not given

Structure (SMILES)	ED50 [µM]
CCOC(=O)c1cn2cc(Br)nc(Br)c2n1	>0.016

Organism: Rattus norvegicus
Experiment: Inhibition of the uterine smooth muscle contraction induced by histamine on the isolated rat uterus
Format: functional
Details: read-out: ED50 (the source's name)

EC50 [µM]	Structure (SMILES)
0.0016	c1cn2ccnc2cn1

Organism: Rattus norvegicus
Experiment: Inhibition of the uterine smooth muscle contraction induced by histamine on the isolated rat uterus.
Format: functional
Details: read-out: ED50

EC50 [µM]	Structure (SMILES)
102	CCOC(=O)c1[nH]c2nccnc2c1C
290	Brc1cncc2nccn12
150	CCOC(=O)c1cn2cc(Br)nc(Br)c2n1
240	Brc1cn2ccnc2c(Br)n1
2380	N#Cc1cn2ccncc2n1
1500	NC(=O)c1cn2ccncc2n1
152	CCOC(=O)c1c(C)nc2cnccn12
780	N#Cc1cn2c(Br)cncc2n1
410	NC(=O)c1cn2c(Br)cncc2n1
96	CCOC(=O)Cc1cn2cc(Br)nc(Br)c2n1
880	CC(=O)c1c(Cl)nc2cnccn12
1110	CCOC(=O)c1cn2ccncc2n1
750	Cc1cn2ccncc2n1
1020	CCOC(=O)c1cn2c(Br)cncc2n1
1720	O=C(O)c1cn2ccncc2n1
2700	OCc1cn2ccncc2n1

Structure (SMILES)	EC50 [µM]
ClCc1cn2ccncc2n1	1400
Cn1c(=O)c2nc[nH]c2n(C)c1=O [THEOPHYLLINE]	900

Organism: Rattus norvegicus
Experiment: Inhibition of the uterine smooth muscle contraction induced by histamine on the isolated rat uterus at high dose
Format: functional
Details: read-out: ED50 (the source's name)

EC50 [µM]	Structure (SMILES)
> 0.0024	COC(=O)c1cn2ccncc2n1

Organism: Cavia porcellus
Experiment: Inhibition of the bronchospasm induced by histamine in guinea pigat the high concentration / dose
Format: functional
Details: not given

Structure (SMILES)	ED50 [µM]
ClCc1cn2ccncc2n1	>0.072

Organism: Rattus norvegicus
Experiment: Inhibition of the uterine smooth muscle contraction induced by histamine on the isolated rat uterus at high dose /concentration.
Format: functional
Details: read-out: ED50 (the source's name)

EC50 [µM]	Structure (SMILES)
0.00033	NC(=O)c1cn2cc(Br)nc(Br)c2n1

Organism: Rattus norvegicus
Experiment: Inhibition of the uterine smooth muscle contraction induced by histamine on the isolated rat uterus at high dose.
Format: functional
Details: read-out: ED50 (the source's name)

EC50 [nM]	Structure (SMILES)
0.34	Nc1nc2cnccn2c1Br
0.09	N#Cc1cn2cc(Br)nc(Br)c2n1
